Data: ChEMBL document CHEMBL3804797, “Discovery of Aryl Sulfonamides as Isoform-Selective Inhibitors of NaV1.7 with Efficacy in Rodent Pain Models” (ACS Med Chem Lett, 2016)
Values after ≈ are worked out from the molar mass of the structure shown. Values belong to the compound of their own block, whether it stands above or below them.

Tests used:
hERG (KCNH2) = hERG (KCNH2) (Homo sapiens, UniProt Q12809); test: Displacement of [3H] astemizole from human ERG channel at 5 uM; conditions: probe [3H] astemizole
[1] = target: Sodium channel protein type 5 subunit alpha (Homo sapiens, UniProt Q14524); test: Inhibition of full length human Nav1.5 channel expressed in HEK cells co-expressing human sodium channel subunit beta1 at holding potential -60 mV by automated voltage clamp analysis; format: cell-based, HEK293
[2] = target: T1, Sodium channel protein type 9 subunit alpha (Homo sapiens, UniProt Q15858); test: Inhibition of full length human Nav1.7 channel expressed in HEK cells co-expressing human sodium channel subunit beta1 at holding potential -60 mV by automated voltage clamp analysis; format: cell-based, HEK293
[3] = Half life in Sprague-Dawley rat at 20 mg/kg, ip; format: ADME, organism-based; conditions: in vivo
[4] = Efflux ratio of apparent permeability from apical to basolateral side to basolateral to apical side in MDCK1 cells expressing human MDR1 at 10 uM; format: ADME, cell-based, Canis lupus familiaris; conditions: dog, mdck1, 10 µM
[5] = Dissociation constant, pKa of the compound at 100 uM by UV-spectrophotometric titration method; format: physicochemical
[6] = Half life in Sprague-Dawley rat at 1 mg/kg, iv; format: ADME, organism-based; conditions: in vivo
[7] = AUC (0 to infinity) in Sprague-Dawley rat at 1 mg/kg, iv; format: ADME, organism-based; set-up: dose 1 mg/kg, time infinity, route intravenous; conditions: in vivo
Cytochrome P450 1A2 = target: T2, Cytochrome P450 1A2 (Homo sapiens, UniProt P05177); test: Inhibition of CYP1A2 in human liver microsomes using phenacetin as substrate after 30 mins by LC/MS/MS analysis; format: ADME
T2 sequence (P05177 whole entry): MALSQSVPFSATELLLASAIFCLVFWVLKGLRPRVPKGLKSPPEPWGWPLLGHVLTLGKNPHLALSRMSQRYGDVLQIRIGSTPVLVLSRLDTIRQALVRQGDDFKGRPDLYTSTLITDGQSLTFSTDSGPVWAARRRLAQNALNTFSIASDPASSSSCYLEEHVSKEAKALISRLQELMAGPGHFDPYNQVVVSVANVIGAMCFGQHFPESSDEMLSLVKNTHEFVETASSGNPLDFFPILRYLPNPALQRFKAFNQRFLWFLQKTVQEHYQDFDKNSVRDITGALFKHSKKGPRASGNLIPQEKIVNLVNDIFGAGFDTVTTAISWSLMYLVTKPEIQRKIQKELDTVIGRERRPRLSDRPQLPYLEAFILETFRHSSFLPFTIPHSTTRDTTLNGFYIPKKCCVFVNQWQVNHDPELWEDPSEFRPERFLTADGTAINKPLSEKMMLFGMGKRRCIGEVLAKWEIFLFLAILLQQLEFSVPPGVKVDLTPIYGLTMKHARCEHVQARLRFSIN

[8] = Kinetic solubility of compound at pH 7.2; format: physicochemical; conditions: buffer, read-out: Kinetic_solubility
[9] = target: Sodium channel protein type 2 subunit alpha (Homo sapiens, UniProt Q99250); test: Inhibition of full length human Nav1.2 channel expressed in HEK cells co-expressing human sodium channel subunit beta1 at holding potential -35 mV by automated voltage clamp analysis; format: cell-based, HEK293
Cytochrome P450 3A4 = Cytochrome P450 3A4 (Homo sapiens, UniProt P08684); test: Inhibition of CYP3A4 in human liver microsomes using testosterone/midazolam as substrate after 30 mins by LC/MS/MS analysis; format: ADME
[10] = Cmax in Sprague-Dawley rat at 20 mg/kg, ip; format: ADME, organism-based; set-up: dose 20 mg/kg, route intraperitoneal; conditions: in vivo
[11] = target: Sodium channel protein type 1 subunit alpha (Homo sapiens, UniProt P35498); test: Inhibition of full length human Nav1.1 channel expressed in HEK cells co-expressing human sodium channel subunit beta1 at holding potential -40 mV by automated voltage clamp analysis; format: cell-based, HEK293
[12] = Volume of distribution at steady state in Sprague-Dawley rat at 1 mg/kg, iv; format: ADME, organism-based; conditions: in vivo, read-out: Vdss
[13] = target: T1, Sodium channel protein type 9 subunit alpha; test: Inhibition of full length human Nav1.7 channel expressed in HEK cells co-expressing human sodium channel subunit beta3 at -150 mV by manual voltage clamp analysis; format: cell-based, HEK293
[14] = target: Sodium channel protein type 9 subunit alpha (Rattus norvegicus, UniProt O08562); test: Inhibition of rat Nav1.7 channel by automated voltage clamp analysis
[15] = target: Sodium channel protein type 8 subunit alpha (Homo sapiens, UniProt Q9UQD0); test: Inhibition of full length human Nav1.6 channel expressed in HEK cells co-expressing human sodium channel subunit beta1 at holding potential -35 mV by automated voltage clamp analysis; format: cell-based, HEK293
[16] = target: Sodium channel protein type 9 subunit alpha (Mus musculus, UniProt Q62205); test: Inhibition of Nav1.7 channel in mouse CAD cells by whole-cell patch clamp assay; format: cell-based
[17] = Apparent permeability from apical to basolateral side in MDCK1 cells at 10 uM incubated for 2 hrs; format: ADME, cell-based, Canis lupus familiaris; conditions: dog, MDCK
[18] = Tmax in Sprague-Dawley rat at 20 mg/kg, ip; format: ADME, organism-based; conditions: in vivo
[19] = Cmax in Sprague-Dawley rat at 1 mg/kg, iv; format: ADME, organism-based; set-up: dose 1 mg/kg, route intravenous; conditions: in vivo
[20] = Ratio of drug uptake in brain to plasma in Sprague-Dawley rat at 20 mg/kg, ip by UHPLC analysis; format: ADME, organism-based; conditions: read-out: BPR
[21] = Plasma clearance in Sprague-Dawley rat at 1 mg/kg, iv; format: ADME, organism-based
[22] = Plasma protein binding in rat at 10 uM incubated for 20 hrs by HPLC-MS/MS analysis; format: ADME, cell-free; conditions: read-out: PPB (converted)
[23] = AUC (0 to infinity) in Sprague-Dawley rat at 20 mg/kg, ip; format: ADME, organism-based; set-up: dose 20 mg/kg, route intraperitoneal, time infinity; conditions: in vivo
Cytochrome P450 2C9 = Cytochrome P450 2C9 (Homo sapiens, UniProt P11712); test: Inhibition of CYP2C9 in human liver microsomes using warfarin as substrate after 30 mins by LC/MS/MS analysis; format: ADME
Cytochrome P450 2D6 = Cytochrome P450 2D6 (Homo sapiens, UniProt P10635); test: Inhibition of CYP2D6 in human liver microsomes using dextromethorphan as substrate after 30 mins by LC/MS/MS analysis; format: ADME
Cytochrome P450 2C19 = Cytochrome P450 2C19 (Homo sapiens, UniProt P33261); test: Inhibition of CYP2C19 in human liver microsomes using mephenytoin as substrate after 30 mins by LC/MS/MS analysis; format: ADME
Rattus norvegicus [24] = test: Analgesic activity in rat assessed as reduction in formalin-induced late phase pain response at 100 mg/kg, ip dosed 2 hrs prior to formalin challenge measured over 10 to 40 mins by automated nociception analysis relative to formalin; format: functional; set-up: scale not given: the % may be the effect or the level left
Rattus norvegicus [25] = test: Analgesic activity in aconitine-induced rat pain model assessed as free plasma concentration required to show efficacy at 30 to 100 mg/kg, ip dosed 2 hrs prior to aconitine challenge measured over 60 mins by automated nociception analysis; format: functional
Mus musculus [26] = test: Analgesic activity in mouse assessed as reduction in CFA-induced cold allodynia at 30 mg/kg, ip administered 1 hr prior to acetone challenge on day 2 post CFA injection measured for 120 secs relative to vehicle control; format: functional; set-up: scale not given: the % may be the effect or the level left
Rattus norvegicus [27] = test: Analgesic activity in rat assessed as inhibition of aconitine-induced pain response at 100 mg/kg, ip dosed 2 hrs prior to aconitine challenge measured over 60 mins by automated nociception analysis relative to aconitine; format: functional; set-up: scale not given: the % may be the effect or the level left
Mus musculus [28] = test: Analgesic activity in mouse assessed as reduction in CFA-induced cold allodynia at 100 mg/kg, ip administered 1 hr prior to acetone challenge on day 2 post CFA injection measured for 120 secs relative to vehicle control; format: functional; set-up: scale not given: the % may be the effect or the level left
Rattus norvegicus [29] = test: Analgesic activity in formalin-induced rat pain model assessed as free plasma concentration required to show efficacy at 30 to 100 mg/kg, ip dosed 2 hrs prior to aconitine challenge measured over 60 mins by automated nociception analysis; format: functional

Chain of hERG (KCNH2) (Q12809 whole entry): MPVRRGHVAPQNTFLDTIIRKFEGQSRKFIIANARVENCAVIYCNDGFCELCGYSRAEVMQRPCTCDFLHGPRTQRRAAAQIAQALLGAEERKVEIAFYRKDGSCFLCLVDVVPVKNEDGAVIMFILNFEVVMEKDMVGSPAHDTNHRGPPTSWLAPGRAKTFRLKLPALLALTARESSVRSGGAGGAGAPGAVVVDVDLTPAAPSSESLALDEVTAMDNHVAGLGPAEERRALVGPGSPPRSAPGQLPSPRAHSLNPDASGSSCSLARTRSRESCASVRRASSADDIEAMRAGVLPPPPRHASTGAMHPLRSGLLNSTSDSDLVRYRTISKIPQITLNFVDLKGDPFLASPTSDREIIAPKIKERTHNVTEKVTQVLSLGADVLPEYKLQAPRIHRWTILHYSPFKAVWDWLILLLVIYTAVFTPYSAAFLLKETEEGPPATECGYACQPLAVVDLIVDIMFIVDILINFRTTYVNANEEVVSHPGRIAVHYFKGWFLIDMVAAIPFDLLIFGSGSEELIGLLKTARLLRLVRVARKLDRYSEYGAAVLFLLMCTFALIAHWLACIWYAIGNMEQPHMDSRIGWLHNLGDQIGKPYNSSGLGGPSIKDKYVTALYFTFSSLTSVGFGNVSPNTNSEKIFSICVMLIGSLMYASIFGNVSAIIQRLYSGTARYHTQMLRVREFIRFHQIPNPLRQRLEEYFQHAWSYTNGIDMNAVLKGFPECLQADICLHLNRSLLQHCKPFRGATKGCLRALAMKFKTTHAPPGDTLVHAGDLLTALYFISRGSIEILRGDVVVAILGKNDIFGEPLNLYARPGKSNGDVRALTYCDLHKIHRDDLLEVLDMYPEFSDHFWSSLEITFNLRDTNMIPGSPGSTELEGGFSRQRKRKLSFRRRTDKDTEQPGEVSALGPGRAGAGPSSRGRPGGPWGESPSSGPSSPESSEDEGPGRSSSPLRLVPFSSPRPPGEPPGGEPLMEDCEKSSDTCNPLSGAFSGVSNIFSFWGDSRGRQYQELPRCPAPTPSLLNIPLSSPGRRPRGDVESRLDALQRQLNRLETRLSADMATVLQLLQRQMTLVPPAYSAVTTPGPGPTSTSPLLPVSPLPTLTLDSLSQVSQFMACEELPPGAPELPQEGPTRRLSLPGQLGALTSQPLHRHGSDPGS
Chain of Sodium channel protein type 5 subunit alpha (Q14524 whole entry): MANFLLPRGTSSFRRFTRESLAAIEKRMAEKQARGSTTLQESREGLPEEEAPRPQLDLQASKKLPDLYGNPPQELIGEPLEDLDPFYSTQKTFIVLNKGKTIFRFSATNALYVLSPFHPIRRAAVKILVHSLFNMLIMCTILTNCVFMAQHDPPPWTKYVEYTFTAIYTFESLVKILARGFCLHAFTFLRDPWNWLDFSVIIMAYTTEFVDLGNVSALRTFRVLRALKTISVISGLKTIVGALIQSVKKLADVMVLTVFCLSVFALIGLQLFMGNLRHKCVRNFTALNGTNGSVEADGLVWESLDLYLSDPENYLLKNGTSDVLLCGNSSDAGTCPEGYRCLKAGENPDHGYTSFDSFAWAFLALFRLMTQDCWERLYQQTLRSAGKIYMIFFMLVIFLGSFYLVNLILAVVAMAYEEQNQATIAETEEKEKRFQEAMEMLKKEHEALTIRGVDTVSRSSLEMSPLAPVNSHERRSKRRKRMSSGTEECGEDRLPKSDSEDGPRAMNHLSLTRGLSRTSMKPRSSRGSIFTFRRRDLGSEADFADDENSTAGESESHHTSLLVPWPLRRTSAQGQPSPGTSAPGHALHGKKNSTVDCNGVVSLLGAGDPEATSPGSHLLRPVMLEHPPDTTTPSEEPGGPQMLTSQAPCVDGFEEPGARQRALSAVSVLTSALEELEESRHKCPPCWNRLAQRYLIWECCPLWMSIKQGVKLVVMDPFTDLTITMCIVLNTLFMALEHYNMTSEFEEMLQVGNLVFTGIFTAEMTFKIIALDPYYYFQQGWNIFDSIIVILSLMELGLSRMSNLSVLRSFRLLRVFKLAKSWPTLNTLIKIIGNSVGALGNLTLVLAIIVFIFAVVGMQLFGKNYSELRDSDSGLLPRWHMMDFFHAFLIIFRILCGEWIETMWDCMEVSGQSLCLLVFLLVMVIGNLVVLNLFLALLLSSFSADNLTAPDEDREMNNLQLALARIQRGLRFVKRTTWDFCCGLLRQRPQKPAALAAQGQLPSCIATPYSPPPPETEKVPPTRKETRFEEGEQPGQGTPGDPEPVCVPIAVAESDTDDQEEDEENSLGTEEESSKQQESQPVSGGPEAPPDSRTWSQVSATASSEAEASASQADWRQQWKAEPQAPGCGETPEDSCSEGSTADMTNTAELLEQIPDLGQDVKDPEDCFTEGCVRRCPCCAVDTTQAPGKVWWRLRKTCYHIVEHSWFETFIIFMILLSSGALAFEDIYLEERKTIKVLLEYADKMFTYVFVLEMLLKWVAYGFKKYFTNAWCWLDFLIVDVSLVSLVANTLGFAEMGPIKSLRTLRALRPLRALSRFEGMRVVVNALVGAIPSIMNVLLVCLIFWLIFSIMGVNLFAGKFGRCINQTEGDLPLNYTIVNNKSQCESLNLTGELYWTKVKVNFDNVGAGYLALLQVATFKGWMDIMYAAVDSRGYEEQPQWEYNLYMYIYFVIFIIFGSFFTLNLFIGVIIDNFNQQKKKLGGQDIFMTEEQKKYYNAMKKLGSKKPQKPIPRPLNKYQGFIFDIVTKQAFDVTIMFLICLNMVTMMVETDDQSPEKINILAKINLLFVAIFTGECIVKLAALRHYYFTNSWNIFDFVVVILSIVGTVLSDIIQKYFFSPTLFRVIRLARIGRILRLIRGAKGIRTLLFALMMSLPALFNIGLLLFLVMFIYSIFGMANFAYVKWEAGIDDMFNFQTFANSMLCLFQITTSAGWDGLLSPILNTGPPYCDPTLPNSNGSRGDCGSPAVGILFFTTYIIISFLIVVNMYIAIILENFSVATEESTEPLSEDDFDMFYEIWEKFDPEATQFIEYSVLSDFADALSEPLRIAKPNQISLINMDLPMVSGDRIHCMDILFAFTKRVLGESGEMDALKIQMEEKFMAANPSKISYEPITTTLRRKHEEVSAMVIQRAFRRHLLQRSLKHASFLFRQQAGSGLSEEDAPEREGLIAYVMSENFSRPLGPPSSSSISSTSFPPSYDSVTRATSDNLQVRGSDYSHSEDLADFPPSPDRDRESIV
T1 sequence (Q15858 whole entry): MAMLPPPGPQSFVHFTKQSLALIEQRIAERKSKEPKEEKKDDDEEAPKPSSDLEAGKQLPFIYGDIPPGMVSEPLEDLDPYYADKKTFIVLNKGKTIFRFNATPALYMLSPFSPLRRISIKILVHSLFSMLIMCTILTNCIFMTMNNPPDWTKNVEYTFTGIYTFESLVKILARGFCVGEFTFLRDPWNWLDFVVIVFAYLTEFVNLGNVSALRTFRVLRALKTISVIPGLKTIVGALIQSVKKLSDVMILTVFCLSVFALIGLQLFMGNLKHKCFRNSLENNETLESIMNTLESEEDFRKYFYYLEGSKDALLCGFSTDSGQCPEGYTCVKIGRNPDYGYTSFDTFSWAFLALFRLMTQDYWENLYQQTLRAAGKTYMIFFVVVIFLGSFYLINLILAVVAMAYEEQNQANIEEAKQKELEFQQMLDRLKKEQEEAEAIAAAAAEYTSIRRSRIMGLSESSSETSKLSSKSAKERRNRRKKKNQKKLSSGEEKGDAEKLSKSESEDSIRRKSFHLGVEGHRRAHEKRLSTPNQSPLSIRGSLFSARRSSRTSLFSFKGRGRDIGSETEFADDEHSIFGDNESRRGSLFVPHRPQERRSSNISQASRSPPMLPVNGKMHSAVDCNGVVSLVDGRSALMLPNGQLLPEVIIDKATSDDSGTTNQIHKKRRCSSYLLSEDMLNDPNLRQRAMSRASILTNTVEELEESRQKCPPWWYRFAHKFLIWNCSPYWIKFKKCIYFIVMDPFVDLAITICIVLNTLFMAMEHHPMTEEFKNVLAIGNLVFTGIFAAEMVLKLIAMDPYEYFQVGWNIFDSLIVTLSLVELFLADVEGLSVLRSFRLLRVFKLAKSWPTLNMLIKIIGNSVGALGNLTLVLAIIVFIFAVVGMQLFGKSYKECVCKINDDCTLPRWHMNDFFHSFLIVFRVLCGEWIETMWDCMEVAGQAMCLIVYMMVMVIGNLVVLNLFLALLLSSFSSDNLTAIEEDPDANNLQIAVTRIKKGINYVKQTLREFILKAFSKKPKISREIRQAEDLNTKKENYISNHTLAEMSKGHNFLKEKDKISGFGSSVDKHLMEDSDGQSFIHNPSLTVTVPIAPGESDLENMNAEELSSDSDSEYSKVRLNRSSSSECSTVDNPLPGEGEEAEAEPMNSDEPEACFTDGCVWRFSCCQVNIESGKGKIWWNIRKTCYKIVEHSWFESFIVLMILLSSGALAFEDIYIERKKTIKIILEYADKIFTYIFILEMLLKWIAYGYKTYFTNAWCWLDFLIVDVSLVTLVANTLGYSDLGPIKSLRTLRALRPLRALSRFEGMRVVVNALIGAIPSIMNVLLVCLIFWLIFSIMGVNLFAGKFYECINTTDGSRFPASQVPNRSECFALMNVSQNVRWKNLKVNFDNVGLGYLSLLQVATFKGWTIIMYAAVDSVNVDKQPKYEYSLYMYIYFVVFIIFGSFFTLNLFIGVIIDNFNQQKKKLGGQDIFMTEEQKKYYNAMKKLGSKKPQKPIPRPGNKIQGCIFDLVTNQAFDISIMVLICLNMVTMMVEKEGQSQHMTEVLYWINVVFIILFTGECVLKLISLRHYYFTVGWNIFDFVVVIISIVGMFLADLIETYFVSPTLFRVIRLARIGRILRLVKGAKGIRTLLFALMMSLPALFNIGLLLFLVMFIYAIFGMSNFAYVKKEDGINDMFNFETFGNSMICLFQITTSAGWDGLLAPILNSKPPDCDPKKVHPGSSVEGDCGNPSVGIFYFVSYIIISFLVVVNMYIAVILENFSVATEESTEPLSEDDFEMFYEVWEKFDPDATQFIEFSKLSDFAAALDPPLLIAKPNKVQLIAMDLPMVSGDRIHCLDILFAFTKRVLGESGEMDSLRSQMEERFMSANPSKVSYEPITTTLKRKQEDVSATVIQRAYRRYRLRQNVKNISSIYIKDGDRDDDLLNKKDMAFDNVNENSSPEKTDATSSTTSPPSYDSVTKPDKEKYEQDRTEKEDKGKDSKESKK

Compound: O=c1[nH]c2ccc(-c3cc(Cl)ccc3Oc3cc(F)c(S(=O)(=O)Nc4ncns4)cc3F)cc2[nH]1
- inhibition at 5 µM (hERG (KCNH2)): < 11%
- IC50 [1]: > 10000 nM

- IC50 [2]: 0.4 nM
- half-life [3]: 132 min
- Ratio [4]: 47
- pKa at 100 µM [5]: 3.2
- half-life [6]: 7.8 min
- AUC(0-inf) [7]: 0.18 µM·h
- IC50 (Cytochrome P450 1A2): > 9000 nM
- solubility kinetic [8]: 121 µM (≈ 64.8 µg/mL)
- IC50 [9]: 4.2 nM
- IC50 (Cytochrome P450 3A4): 77 nM
- Cmax [10]: 5.3 µM
- IC50 [11]: 3080 nM
- Vd [12]: 1.4 L/kg
- IC50 [13]: 0.4 nM
- IC50 [14]: 26 nM
- IC50 [15]: 11 nM
- IC50 [16]: 0.2 nM
- Papp A→B at 2 h, 10 µM [17]: 2.1 ×10⁻⁶ cm/s
- Tmax [18]: 3.6 min
- Cmax [19]: 2.9 µM
- Kp [20]: 0.019
- clearance [21]: 177 mL/min/kg
- fraction unbound at 20 h, 10 µM [22]: 0.011
- AUC(0-inf) [23]: 13.5 µM·h
- IC50 (Cytochrome P450 2C9): 170 nM
- IC50 (Cytochrome P450 2D6): > 9000 nM
Compound: Nc1noc2ccc(-c3cc(Cl)ccc3Oc3cc(F)c(S(=O)(=O)Nc4ncns4)cc3F)cc12
- inhibition at 5 µM (hERG (KCNH2)): < 11%
- IC50 [1]: 1380 nM

- IC50 (Cytochrome P450 2C19): > 10000 nM
- IC50 (Cytochrome P450 1A2): > 10000 nM
- IC50 (Cytochrome P450 3A4): > 10000 nM
- IC50 (Cytochrome P450 2C9): 570 nM
- IC50 (Cytochrome P450 2D6): > 10000 nM
Compound: Nc1noc2ccc(-c3cc(Cl)ccc3Oc3cc(F)c(S(=O)(=O)Nc4ncccn4)cc3F)cc12
- inhibition at 5 µM (hERG (KCNH2)): < 11%

Compound: Nc1noc2ccc(-c3cc(Cl)ccc3Oc3cc(F)c(S(=O)(=O)Nc4cscn4)cc3F)cc12
- inhibition at 5 µM (hERG (KCNH2)): < 11%

- IC50 [2]: 241 nM
Compound: Nc1noc2ccc(CCOc3cc(F)c(S(=O)(=O)Nc4ncns4)cc3F)cc12
- inhibition at 5 µM (hERG (KCNH2)): < 11%

- IC50 [2]: 5200 nM
Compound: Nc1noc2ccc(-c3cc(Cl)ccc3Oc3cc(F)c(S(=O)(=O)NCc4ncccn4)cc3F)cc12

Compound: Nc1noc2ccc(-c3cc(Cl)ccc3Oc3cc(F)c(S(=O)(=O)[N-]c4ncns4)cc3F)cc12.[Na+]
- Activity (Rattus norvegicus [24]): 60%
- Cp(f) (Rattus norvegicus [25]): 250 nM
- Activity (Mus musculus [26]): 59%
- Activity (Rattus norvegicus [27]): 43%
- Activity (Mus musculus [28]): 83%
- Cp(f) (Rattus norvegicus [29]): 250 nM

Compound: O=S(=O)(Nc1ncns1)c1cc(F)c(Oc2ccc(Cl)cc2-c2ccc3[nH]cnc3c2)cc1F
- inhibition at 5 µM (hERG (KCNH2)): < 11%
- IC50 [1]: > 10000 nM

Compound: Nc1noc2ccc(-c3cccnc3Oc3cc(F)c(S(=O)(=O)Nc4ncns4)cc3F)cc12
- inhibition at 5 µM (hERG (KCNH2)): < 11%
